Laboratory results taken from patent US11312712B2, “Azabenzimidazoles and their use as AMPA receptor modulators” (Janssen Pharmaceutica NV, priority 2015, dated 2022).
pIC50: −log10 of the molar value.

These compounds were tested against GluA1o-γ8 (GRIA1o-CACNG8 fusion construct) (Homo sapiens (Human), UniProt P42261+Q8WXS5) (assay: Calcium flux assay (FLIPR), inhibition of TARP γ8 dependent AMPA receptor activity). Settings: GluA1o-γ8 (GRIA1o-CACNG8 fusion) in HEK293 cells, calcium flux after 15 μM glutamate.
Assay type: cell-based
Outline: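 HEK293 cells stably expressing a 1:1 GRIA1o–CACNG8 fusion were loaded with Calcium-5/6 dye plus compound in pH 7.4 HEPES-buffered saline. FLIPR calcium flux after 15 μM glutamate was normalized to untreated and 10 μM CP465022 controls, and a four-parameter logistic fit gave pIC50.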

Sequence of GluA1o-γ8 (GRIA1o-CACNG8 fusion construct) (P42261 other isoform, or with tags, fused parts or gaps): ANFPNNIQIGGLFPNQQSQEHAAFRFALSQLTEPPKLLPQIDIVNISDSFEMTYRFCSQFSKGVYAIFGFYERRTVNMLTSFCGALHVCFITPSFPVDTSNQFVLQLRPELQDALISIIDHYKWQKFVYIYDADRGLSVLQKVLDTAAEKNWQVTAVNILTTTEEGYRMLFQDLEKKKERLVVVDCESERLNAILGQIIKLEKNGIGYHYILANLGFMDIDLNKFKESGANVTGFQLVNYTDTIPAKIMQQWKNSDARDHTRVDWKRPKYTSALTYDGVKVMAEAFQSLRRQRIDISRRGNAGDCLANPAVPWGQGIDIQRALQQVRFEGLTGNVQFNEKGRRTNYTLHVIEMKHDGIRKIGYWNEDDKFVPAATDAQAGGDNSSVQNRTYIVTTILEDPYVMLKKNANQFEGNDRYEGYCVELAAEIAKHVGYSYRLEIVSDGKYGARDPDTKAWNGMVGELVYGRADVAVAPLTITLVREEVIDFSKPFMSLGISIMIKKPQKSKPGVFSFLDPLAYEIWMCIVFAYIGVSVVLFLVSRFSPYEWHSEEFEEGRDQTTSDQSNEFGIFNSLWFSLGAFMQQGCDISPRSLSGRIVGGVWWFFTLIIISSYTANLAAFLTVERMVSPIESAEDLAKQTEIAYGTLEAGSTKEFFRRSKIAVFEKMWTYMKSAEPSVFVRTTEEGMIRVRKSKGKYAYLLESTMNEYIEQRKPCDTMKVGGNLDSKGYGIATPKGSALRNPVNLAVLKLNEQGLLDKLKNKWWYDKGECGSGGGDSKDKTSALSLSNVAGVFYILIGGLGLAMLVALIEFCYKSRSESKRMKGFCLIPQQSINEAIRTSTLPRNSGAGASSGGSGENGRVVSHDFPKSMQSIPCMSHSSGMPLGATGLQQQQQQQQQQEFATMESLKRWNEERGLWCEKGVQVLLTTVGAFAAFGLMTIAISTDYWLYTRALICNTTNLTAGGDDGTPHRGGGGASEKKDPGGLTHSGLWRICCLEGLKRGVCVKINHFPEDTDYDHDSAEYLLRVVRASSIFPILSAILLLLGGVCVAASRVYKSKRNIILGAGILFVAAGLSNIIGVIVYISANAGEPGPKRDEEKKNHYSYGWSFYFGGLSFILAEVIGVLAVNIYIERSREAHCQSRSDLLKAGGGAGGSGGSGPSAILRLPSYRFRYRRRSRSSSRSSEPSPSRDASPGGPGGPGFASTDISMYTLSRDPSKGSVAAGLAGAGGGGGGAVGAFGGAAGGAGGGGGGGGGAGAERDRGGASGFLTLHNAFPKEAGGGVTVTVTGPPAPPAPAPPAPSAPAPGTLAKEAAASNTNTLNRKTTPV

pIC50 | SMILES
9.00 | O=c1[nH]c2ccc(-n3c(C(F)(F)F)nc4c(N5CCOCC5)cc(C(F)(F)F)nc43)cc2s1 [Example 230, 6-[7-Morpholino-2,5-bis(trifluoromethyl)imidazo[4,5-b]pyridin-3-yl]-3H-1,3-benzothiazol-2-one]
9.00 | Cc1ccc2cc(C3CC3)n(-c3ccc4c(c3)CC(=O)N4)c2n1 [Example 380, 5-(2-Cyclopropyl-6-methyl-pyrrolo[2,3-b]pyridin-1-yl)indolin-2-one]
10.50 | Cc1cc(-n2c(C(C)C)nc3ccc(C(F)(F)F)nc32)cc2cn[nH]c12 [Example 198, 2-Isopropyl-3-(7-methyl-1H-indazol-5-yl)-5-(trifluoromethyl)imidazo[4,5-b]pyridine]
9.00 | Cc1cc(N2CCOCC2)c2nc(C3CCC3)n(-c3ccc4[nH]c(=O)sc4c3)c2n1 [Example 133, 6-(2-Cyclobutyl-5-methyl-7-morpholino-imidazo[4,5-b]pyridin-3-yl)-3H-1,3-benzothiazol-2-one]
9.80 | Cc1cc(-n2c(C(C)C)nc3c(N(C)CCF)cc(C(F)(F)F)nc32)cc2cn[nH]c12 [Example 214, N-(2-Fluoroethyl)-2-isopropyl-N-methyl-3-(7-methyl-1H-indazol-5-yl)-5-(trifluoromethyl)imidazo[4,5-b]pyridin-7-amine]
7.20 | C=CCc1cc(-n2c(C(F)(F)F)nc3ccc(C(F)(F)F)nc32)cc2cn[nH]c12 [Example 304, 3-(7-Allyl-1H-indazol-5-yl)-2,5-bis(trifluoromethyl)-3H-imidazo[4,5-b]pyridine]
9.20 | Cc1cc(-n2c(C)nc3ccc(C(F)(F)F)nc32)cc2cn[nH]c12 [Example 319, 2-Methyl-3-(7-methyl-1H-indazol-5-yl)-5-(trifluoromethyl)imidazo[4,5-b]pyridine]
8.00 | O=c1[nH]c2ccc(-n3c(-c4ccc(F)cc4)nc4cccnc43)cc2[nH]1 [Example 21, 5-[2-(4-Fluorophenyl)imidazo[4,5-b]pyridin-3-yl]-1,3-dihydrobenzimidazol-2-one]
10.20 | Cc1ccc2cc(C(C)C)n(-c3cc(C)c4c(c3)CC(=O)N4)c2n1 [Example 360, 5-(2-Isopropyl-6-methyl-pyrrolo[2,3-b]pyridin-1-yl)-7-methyl-indolin-2-one]
7.50 | Cc1cc(-n2c(C(F)(F)F)nc3cccnc32)cc2c1NC(=O)C2 [Example 318, 7-Methyl-5-[2-(trifluoromethyl)imidazo[4,5-b]pyridin-3-yl]indolin-2-one]
9.90 | Cc1cc(-n2c3nc(C(F)(F)F)ccc3nc2[C@H]2C[C@@H](F)C2)cc2cn[nH]c12 [Example 246, 2-(3-Fluorocyclobutyl)-3-(7-methyl-1H-indazol-5-yl)-5-(trifluoromethyl)imidazo[4,5-b]pyridine]
7.10 | Fc1ccc(-c2cc3cccnc3n2-c2ccc3[nH]ccc3c2)cc1 [Example 345, 2-(4-Fluorophenyl)-1-(1H-indol-5-yl)pyrrolo[2,3-b]pyridine]
7.50 | CCc1nc2ccc(C(F)(F)F)nc2n1-c1ccc2[nH]c(=O)oc2c1 [Example 158, 6-[2-Ethyl-5-(trifluoromethyl)imidazo[4,5-b]pyridin-3-yl]-3H-1,3-benzoxazol-2-one]
10.40 | Cc1cc(-n2c(C(F)(F)F)nc3ccc(C(F)F)nc32)cc2cn[nH]c12 [Example 326, 5-(Difluoromethyl)-3-(7-methyl-1H-indazol-5-yl)-2-(trifluoromethyl)imidazo[4,5-b]pyridine]
11.20 | Fc1ccc(-c2nc3ccc(C(F)F)nc3n2-c2cc(Cl)c3[nH]ncc3c2)cc1 [Example 229, 3-(7-Chloro-1H-indazol-5-yl)-5-(difluoromethyl)-2-(4-fluorophenyl)imidazo[4,5-b]pyridine]
7.90 | Cc1cc(-n2cc(C(F)F)c3ccc(C(F)(F)F)nc32)cc2cn[nH]c12 [Example 340, 3-(Difluoromethyl)-1-(7-methyl-1H-indazol-5-yl)-6-(trifluoromethyl)pyrrolo[2,3-b]pyridine]
7.00 | CCNc1nc2ccc(C(F)(F)F)nc2n1-c1ccc2[nH]ncc2c1 [Example 130, N-Ethyl-3-(1H-indazol-5-yl)-5-(trifluoromethyl)imidazo[4,5-b]pyridin-2-amine]
10.70 | FC(F)(F)c1ccc2nc(C3CCC3)n(-c3cc(Br)c4[nH]ncc4c3)c2n1 [Example 138, 3-(7-Bromo-1H-indazol-5-yl)-2-cyclobutyl-5-(trifluoromethyl)imidazo[4,5-b]pyridine]
10.70 | CC(C)c1nc2ccc(C(F)(F)F)nc2n1-c1cc(Cl)c2[nH]ncc2c1 [Example 316, 3-(7-Chloro-1H-indazol-5-yl)-2-isopropyl-5-(trifluoromethyl)imidazo[4,5-b]pyridine]
8.40 | FC(F)(F)c1ccc2nc(-c3cccs3)n(-c3ccc4[nH]ncc4c3)c2n1 [Example 91, 3-(1H-Indazol-5-yl)-2-(2-thienyl)-5-(trifluoromethyl)imidazo[4,5-b]pyridine]

pIC50 | SMILES
11.30 | FC(F)(F)c1ccc2nc(C3CCC3)n(-c3cc(Cl)c4[nH]ncc4c3)c2n1 [Example 308, 3-(7-Chloro-1H-indazol-5-yl)-2-cyclobutyl-5-(trifluoromethyl)imidazo[4,5-b]pyridine]
7.90 | FC(F)(F)c1ccc2nc(C3CCCC3)n(-c3ccc4[nH]ccc4c3)c2n1 [Example 58, 2-Cyclopentyl-3-(1H-indol-5-yl)-5-(trifluoromethyl)imidazo[4,5-b]pyridine]
9.30 | Cc1cc2ccc(C(F)(F)F)nc2n1-c1ccc2[nH]ncc2c1 [Example 354, 5-(2-Methyl-6-(trifluoromethyl)-1H-pyrrolo[2,3-b]pyridin-1-yl)-1H-indazole]
9.90 | CCCc1nc2ccc(C(F)(F)F)nc2n1-c1cc(Cl)c2[nH]ncc2c1 [Example 412, 3-(7-Chloro-1H-indazol-5-yl)-2-propyl-5-(trifluoromethyl)-3H-imidazo[4,5-b]pyridine]
8.30 | CC(C)c1nc2ccc(C(C)(F)F)nc2n1-c1ccc2[nH]ncc2c1 [Example 211, 5-(1,1-Difluoroethyl)-3-(1H-indazol-5-yl)-2-isopropyl-imidazo[4,5-b]pyridine]
10.50 | CC(C)c1cc2ccc(C(F)(F)F)nc2n1-c1cnc2c(c1)CC(=O)N2 [Example 401, 5-[2-Isopropyl-6-(trifluoromethyl)pyrrolo[2,3-b]pyridin-1-yl]-1,3-dihydropyrrolo[2,3-b]pyridin-2-one]
10.00 | C[C@@H](F)c1nc2ccc(C(F)(F)F)nc2n1-c1cc(Cl)c2[nH]ncc2c1 (single isomer, unassigned) [Example 408, (*R)-3-(7-Chloro-1H-indazol-5-yl)-2-(1-fluoroethyl)-5-(trifluoromethyl)-3H-imidazo[4,5-b]pyridine]
9.20 | COCc1cc2ccc(C(F)(F)F)nc2n1-c1cc(F)c2c(c1)CC(=O)N2 [Example 366, 7-Fluoro-5-[2-(methoxymethyl)-6-(trifluoromethyl)pyrrolo[2,3-b]pyridin-1-yl]indolin-2-one]
9.00 | FC(F)c1ccc2nc(C3CC3)n(-c3ccc4[nH]ncc4c3)c2n1 [Example 321, 2-Cyclopropyl-5-(difluoromethyl)-3-(1H-indazol-5-yl)imidazo[4,5-b]pyridine]
9.30 | FC(F)(F)Cc1nc2ccc(C(F)(F)F)nc2n1-c1cc(Cl)c2[nH]ncc2c1 [Example 416, 3-(7-Chloro-1H-indazol-5-yl)-2-(2,2,2-trifluoroethyl)-5-(trifluoromethyl)-3H-imidazo[4,5-b]pyridine]
8.30 | Cc1ccc2cc(-c3ccc(F)cc3)n(-c3ccc4[nH]ccc4c3)c2n1 [Example 381, 2-(4-Fluorophenyl)-1-(1H-indol-5-yl)-6-methyl-pyrrolo[2,3-b]pyridine]
9.50 | O=C1Cc2cc(-n3c(C4CCC4)nc4ccc(C(F)(F)F)nc43)ccc2N1 [Example 49, 5-[2-Cyclobutyl-5-(trifluoromethyl)imidazo[4,5-b]pyridin-3-yl]indolin-2-one]
6.40 | [O-][n+]1cc(-n2c(C(F)(F)F)nc3ccc(C(F)(F)F)nc32)cc2cn[nH]c21 [Example 205, 3-(7-Oxido-1H-pyrazolo[3,4-b]pyridin-7-ium-5-yl)-2,5-bis(trifluoromethyl)imidazo[4,5-b]pyridine]
5.40 | CC(C)NC(=O)c1nc2ccc(C(F)(F)F)nc2n1-c1ccc2[nH]ncc2c1 [Example 172, 3-(1H-Indazol-5-yl)-N-isopropyl-5-(trifluoromethyl)imidazo[4,5-b]pyridine-2-carboxamide]
5.60 | Cc1ccc2nc(C)n(-c3ccc4c(c3)CC(=O)N4)c2n1 [Example 181, 5-(2,5-Dimethylimidazo[4,5-b]pyridin-3-yl)indolin-2-one]
11.00 | CC(C)c1nc2ccc(C(F)(F)F)nc2n1-c1cc(Br)c2[nH]ncc2c1 [Example 184, 3-(7-Bromo-1H-indazol-5-yl)-2-isopropyl-5-(trifluoromethyl)imidazo[4,5-b]pyridine]
7.90 | O=C1Cc2cc(-n3c(-c4ccccc4)nc4cccnc43)ccc2N1 [Example 34, 5-(2-Phenylimidazo[4,5-b]pyridin-3-yl)indolin-2-one]
6.30 | CC1(c2nc3ccc(C(F)(F)F)nc3n2-c2ccc3c(c2)CC(=O)N3)COC1 [Example 76, 5-[2-(3-Methyloxetan-3-yl)-5-(trifluoromethyl)imidazo[4,5-b]pyridin-3-yl]indolin-2-one]
9.50 | O=C1Cc2cc(-n3c(C(F)(F)F)nc4ccc(C(F)F)nc43)cc(F)c2N1 [Example 325, 5-[5-(Difluoromethyl)-2-(trifluoromethyl)imidazo[4,5-b]pyridin-3-yl]-7-fluoro-indolin-2-one]
10.80 | CC(C)c1cc2ccc(C(F)(F)F)nc2n1-c1ccc2[nH]ncc2c1 [Example 335, 1-(1H-Indazol-5-yl)-2-isopropyl-6-(trifluoromethyl)pyrrolo[2,3-b]pyridine]
